Measured values reported in patent US6096930A, “Herbicidal cyclohexane-1,3-dione derivatives and their preparation process” (Korea Research Institute of Chemical Technology, priority 1994, dated 2000).
Where two headings read alike, the source gives them in different places.

What was measured:
Assay in all cases: Herbicidal activity for paddy test
Assay type in all cases: in vivo
[1] = tested on: SCPJU; conditions: for pest or weed control at 2 g/ha: 0.002 kg/ha; for pest or weed control at 8 g/ha: 0.008 kg/ha; for pest or weed control at 31 g/ha: 0.031 kg/ha; for pest or weed control at 125 g/ha: 0.125 kg/ha; for pest or weed control at 500 g/ha: 0.500 kg/ha
Text: (§1) The sterilized sandy loam soil is filled in test pot having a surface area of 348 cm^2 for upland test conditions or 115 cm^2 for paddy test species were planted in furrows.
(§2) The herbicidal activity data were taken visually by percent control, wherein 0 signifies no herbicidal effect and 100 signifies complete kill.

[2] = tested on: ORYSA; conditions: for plant injury at 2 g/ha: 0.002 kg/ha; for plant injury at 8 g/ha: 0.008 kg/ha; for plant injury at 31 g/ha: 0.031 kg/ha; for plant injury at 125 g/ha: 0.125 kg/ha; for plant injury at 500 g/ha: 0.500 kg/ha
Text: as §1, §2

[3] = tested on: MOOVA; conditions: for pest or weed control at 2 g/ha: 0.002 kg/ha; for pest or weed control at 8 g/ha: 0.008 kg/ha; for pest or weed control at 31 g/ha: 0.031 kg/ha; for pest or weed control at 125 g/ha: 0.125 kg/ha; for pest or weed control at 500 g/ha: 0.500 kg/ha
Text: as §1, §2

[4] = tested on: SAGPY; conditions: for pest or weed control at 2 g/ha: 0.002 kg/ha; for pest or weed control at 8 g/ha: 0.008 kg/ha; for pest or weed control at 31 g/ha: 0.031 kg/ha; for pest or weed control at 125 g/ha: 0.125 kg/ha; for pest or weed control at 500 g/ha: 0.500 kg/ha
Text: as §1, §2

[5] = tested on: ECHOR; conditions: for pest or weed control at 2 g/ha: 0.002 kg/ha; for pest or weed control at 8 g/ha: 0.008 kg/ha; for pest or weed control at 31 g/ha: 0.031 kg/ha; for pest or weed control at 125 g/ha: 0.125 kg/ha; for pest or weed control at 500 g/ha: 0.500 kg/ha
Text: as §1, §2

[6] = 3 Leaf, read-out: Herbicidal activity, ORYSA (3 Leaf)
[7] = seed, read-out: Herbicidal activity, ORYSA (seed)

Compound | pest or weed control at 2 g/ha [1] [%] | pest or weed control at 8 g/ha [1] [%] | pest or weed control at 31 g/ha [1] [%] | pest or weed control at 125 g/ha [1] [%] | pest or weed control at 500 g/ha [1] [%] | plant injury at 2 g/ha [2, 6] [%] | plant injury at 8 g/ha [2, 6] [%] | plant injury at 31 g/ha [2, 6] [%] | plant injury at 125 g/ha [2, 6] [%] | plant injury at 500 g/ha [2, 6] [%] | plant injury at 2 g/ha [2, 7] [%] | plant injury at 8 g/ha [2, 7] [%] | plant injury at 31 g/ha [2, 7] [%] | plant injury at 125 g/ha [2, 7] [%] | plant injury at 500 g/ha [2, 7] [%] | pest or weed control at 2 g/ha [3] [%] | pest or weed control at 8 g/ha [3] [%] | pest or weed control at 31 g/ha [3] [%] | pest or weed control at 125 g/ha [3] [%] | pest or weed control at 500 g/ha [3] [%] | further results
C=CCON=C(CC)C1=C(O)CC(c2c(C)c(C)c3c(c2C)CC(C)(C)C3)CC1=O (stereo not drawn) [Compound 3, 5-(2,2,4,6,7-Pentamethylindan-5-yl)-2-[1-(allyloxyimino)propyl]-3-hydroxycyclohex-2-en-1-one] | 0 | 0 | 0 | 0 | 0 | 0 | 0 | 0 | 10 | 100 | 0 | 10 | 100 | 100 | 100 | 0 | 0 | 0 | 0 | 0 | pest or weed control at 2 g/ha [4]: 0%; pest or weed control at 8 g/ha [4]: 0%; pest or weed control at 31 g/ha [4]: 0%; pest or weed control at 125 g/ha [4]: 0%; pest or weed control at 500 g/ha [4]: 0%; pest or weed control at 2 g/ha [5]: 0%; pest or weed control at 8 g/ha [5]: 100%; pest or weed control at 31 g/ha [5]: 100%; pest or weed control at 125 g/ha [5]: 100%; pest or weed control at 500 g/ha [5]: 100%
CCC(=NOCC=CCl)C1=C(O)CC(c2c(C)c(C)c3c(c2C)CC(C)(C)C3)CC1=O (stereo not drawn) [Compound 4] | 0 | 0 | 0 | 0 | 0 | 0 | 0 | 0 | 10 | 40 | 0 | 0 | 100 | 100 | 100 | 0 | 0 | 0 | 0 | 0 | pest or weed control at 2 g/ha [4]: 0%; pest or weed control at 8 g/ha [4]: 0%; pest or weed control at 31 g/ha [4]: 0%; pest or weed control at 125 g/ha [4]: 0%; pest or weed control at 500 g/ha [4]: 50%; pest or weed control at 2 g/ha [5]: 0%; pest or weed control at 8 g/ha [5]: 100%; pest or weed control at 31 g/ha [5]: 100%; pest or weed control at 125 g/ha [5]: 100%; pest or weed control at 500 g/ha [5]: 100%
CCCC(=NOCC)C1=C(O)CC(c2c(C)c(C)c3c(c2C)CC(C)(C)C3)CC1=O (stereo not drawn) [Compound 7] | 0 | 0 | 0 | 0 | 0 | 0 | 0 | 0 | 20 | 65 | 0 | 20 | 100 | 100 | 100 | 0 | 0 | 0 | 0 | 0 | pest or weed control at 2 g/ha [4]: 0%; pest or weed control at 8 g/ha [4]: 0%; pest or weed control at 31 g/ha [4]: 0%; pest or weed control at 125 g/ha [4]: 0%; pest or weed control at 500 g/ha [4]: 40%; pest or weed control at 2 g/ha [5]: 95%; pest or weed control at 8 g/ha [5]: 95%; pest or weed control at 31 g/ha [5]: 100%; pest or weed control at 125 g/ha [5]: 100%; pest or weed control at 500 g/ha [5]: 100%
C=CCON=C(CCC)C1=C(O)CC(c2c(C)c(C)c3c(c2C)CC(C)(C)C3)CC1=O (stereo not drawn) [Compound 8] | 0 | 0 | 0 | 0 | 0 | 0 | 0 | 0 | 0 | 0 | 0 | 0 | 60 | 100 | 100 | 0 | 0 | 0 | 0 | 0 | pest or weed control at 2 g/ha [4]: 0%; pest or weed control at 8 g/ha [4]: 0%; pest or weed control at 31 g/ha [4]: 0%; pest or weed control at 125 g/ha [4]: 0%; pest or weed control at 500 g/ha [4]: 0%; pest or weed control at 2 g/ha [5]: 0%; pest or weed control at 8 g/ha [5]: 40%; pest or weed control at 31 g/ha [5]: 100%; pest or weed control at 125 g/ha [5]: 100%; pest or weed control at 500 g/ha [5]: 100%
CCCC(=NOCC=CCl)C1=C(O)CC(c2c(C)c(C)c3c(c2C)CC(C)(C)C3)CC1=O (stereo not drawn) [Compound 9] | 0 | 0 | 0 | 0 | 0 | 0 | 0 | 0 | 0 | 0 | 0 | 0 | 0 | 70 | 100 | 0 | 0 | 0 | 0 | 0 | pest or weed control at 2 g/ha [4]: 0%; pest or weed control at 8 g/ha [4]: 0%; pest or weed control at 31 g/ha [4]: 0%; pest or weed control at 125 g/ha [4]: 0%; pest or weed control at 500 g/ha [4]: 0%; pest or weed control at 2 g/ha [5]: 0%; pest or weed control at 8 g/ha [5]: 50%; pest or weed control at 31 g/ha [5]: 100%; pest or weed control at 125 g/ha [5]: 100%; pest or weed control at 500 g/ha [5]: 100%
CCC(=NOC)C1=C(O)CC(c2c(C)c(C)c3c(c2C)CC(C)(CC)C3)CC1=O (stereo not drawn) [Compound 11] | 0 | 0 | 0 | 0 | 0 | 0 | 0 | 0 | 30 | 80 | 0 | 0 | 30 | 100 | 100 | 0 | 0 | 0 | 30 | 50 | pest or weed control at 2 g/ha [4]: 0%; pest or weed control at 8 g/ha [4]: 0%; pest or weed control at 31 g/ha [4]: 0%; pest or weed control at 125 g/ha [4]: 0%; pest or weed control at 500 g/ha [4]: 0%; pest or weed control at 2 g/ha [5]: 0%; pest or weed control at 8 g/ha [5]: 30%; pest or weed control at 31 g/ha [5]: 70%; pest or weed control at 125 g/ha [5]: 100%; pest or weed control at 500 g/ha [5]: 100%
